Measured values reported in patent US5334589A, “Quinolone carboxylic acid--metal ion--acid complexes” (Abbott Laboratories, priority 1992, dated 1994).
Like-named read-outs stand apart in the source and are kept apart here.

Experiments:
rat tail vein = assay: Vein irritation in rats (rat tail vein model); settings: 100 mg/kg/day i.v., normal saline; for Normalized Rank: 5=normal
Protocol: Three studies were conducted: In Study I, four rats per group were given test compositions for three consecutive days at a concentration of 4 mg/ml (this and other concentrations expressed in terms of equivalent weight of temafloxacin base); in Study II, three rats per group were given test compositions for five consecutive days at 6 mg/ml; and in Study III, two groups of three rats each were given test compositions for five consecutive days at 4 mg/ml and 8 mg/ml, respectively. All rats were dosed at 100 mg/kg/day, with an infusion rate of 0.3 ml/minute.
Each rat was observed twice after each infusion: Once after 1-to-2 hours following injection, and again after 24 hours. Discoloration was ranked as follows:
4=Single red/pink spot of discoloration
3=Multiple red/pink spots of discoloration
2=Single purple spot of discoloration
1=Multiple purple spots of discoloration
0=Approx. one-fourth of distal tail discolored purple
Aggregate rankings were totaled for each group over the course of each study.

Solubility = type: physicochemical

## CC1CN(c2cc3c(cc2F)c(=O)c(C(=O)O)cn3-c2ccc(F)cc2F)CCN1 (stereo not drawn) [Control A]
Rat tail vein; Study I, 4 mg/ml, three consecutive days, group total / number of animals / number of measurements, 0=worst
  Normalized Rank: 2.29
Rat tail vein; Study I, 4 rats, 4 mg/ml, three consecutive days, discoloration rank 5=normal to 0=one-fourth of distal tail purple
  Total Rank: 55

## CC1CN(c2cc3c(cc2F)c(=O)c(C(=O)O)cn3-c2ccc(F)cc2F)CCN1 (stereo not drawn) [temafloxacin, 1-(2,4-difluorophenyl)-6-fluoro-1,4-dihydro-7-(3-methyl-l-piperazinyl)-4-oxo-3-quinoline carboxylic acid]
Solubility; about pH 4 to about pH 10, read-out: solubility
  solubility: < 500 µg/mL
Solubility; temafloxacin base in water, read-out: solubility in water
  solubility: < 500 µg/mL

## CC1CN(c2cc3c(cc2F)c(=O)c(C(=O)O)cn3-c2ccc(F)cc2F)CCN1 (stereo not drawn) [Control B]
Rat tail vein; Study II, 6 mg/ml, five consecutive days, 0=worst
  Normalized Rank: 3.23
Rat tail vein; Study II, 3 rats, 6 mg/ml, five consecutive days, rank 5=normal, 0=worst
  Total Rank: 97
